Laboratory results: patent US20200270309A1, “MALEIMIDE GROUP-MODIFIED ANGIOGENESIS INHIBITOR HM-1 AND USE THEREOF” (NANJING ANJI BIOLOGICAL TECHNOLOGY CO., LTD, priority 2017, published 2020)
Where two headings read alike, the source gives them in different places. Ends that are not written are not given here. Peptide text beside a SMILES is read from it. * marks the point of attachment. X7 = O=C1C=CC(=O)N1CCOCCOCCOCCOCCOCCOCCCCCCC(=O)*; X23 = O=C1C=CC(=O)N1CCOCCOCCOCCOCCOCCOCCCCC(=O)*; Propanoyl(3-maleimido) = O=C1C=CC(=O)N1CCC(=O)*; X62 = O=C1C=CC(=O)N1CCCCCCCCCCCCC(=O)*; X3 = O=C1C=CC(=O)N1CCOCCOCCCCC(=O)*; X83 = O=C1C=CC(=O)N1CCCCCCC(=O)*; X1 = O=C1C=CC(=O)N1CCOCCCC(=O)*; X38 = O=C1C=CC(=O)N1CCOCC(=O)*

Test: Half-lives and pharmacokinetic parameters of polypeptides vs HM-1
Conditions: in vivo
[1] = read-out: T1/2β (half-life) (converted)

AUC(0-inf) [ng·h/mL]	MRT inf [h]	clearance [mL/min/kg]	half-life (T1/2β (half-life)) [h]	AUC(0-inf) (read-out: AUC0-∞) [ng·h/mL]	clearance (read-out: CL (converted)) [mL/min/kg]	MRT inf (read-out: MRT0-∞) [h]	half-life [1] [h]	half-life (read-out: half-life (converted)) [h]	Compound	half-life [h]
33400 ± 8450	59.8 ± 10.6	0.498	41.42 ± 0.31	–	–	–	–	–	C[C@H](NC(=O)CNC(=O)[C@H](CCCNC(=N)N)NC(=O)CCCCOCCOCCOCCOCCOCCOCCN1C(=O)C=CC1=O)C(=O)N[C@@H](CC(=O)O)C(=O)N[C@@H](CCCNC(=N)N)C(=O)N[C@@H](C)C(=O)NCC(=O)NCC(=O)NCC(=O)NCC(=O)N[C@@H](CCCNC(=N)N)C(=O)NCC(=O)N[C@@H](CC(=O)O)C(=O)O [X87] (X23-RGADRAGGGGRGD-OH)	–
29200 ± 8180	52.2 ± 9.78	0.572	36.2 ± 0.25	–	–	–	–	–	C[C@H](NC(=O)CNC(=O)[C@H](CCCNC(=N)N)NC(=O)CCCCCCCCCCCCN1C(=O)C=CC1=O)C(=O)N[C@@H](CC(=O)O)C(=O)N[C@@H](CCCNC(=N)N)C(=O)N[C@@H](C)C(=O)NCC(=O)NCC(=O)NCC(=O)NCC(=O)N[C@@H](CCCNC(=N)N)C(=O)NCC(=O)N[C@@H](CC(=O)O)C(=O)O [X12] (X62-RGADRAGGGGRGD-OH)	–
33100 ± 7150	59.1 ± 11.8	0.505	40.95 ± 0.27	–	–	–	–	–	C[C@H](NC(=O)CNC(=O)[C@H](CCCNC(=N)N)NC(=O)CCCCCCOCCOCCOCCOCCOCCOCCN1C(=O)C=CC1=O)C(=O)N[C@@H](CC(=O)O)C(=O)N[C@@H](CCCNC(=N)N)C(=O)N[C@@H](C)C(=O)NCC(=O)NCC(=O)NCC(=O)NCC(=O)N[C@@H](CCCNC(=N)N)C(=O)NCC(=O)N[C@@H](CC(=O)O)C(=O)O [X89] (X7-RGADRAGGGGRGD-OH)	–
–	–	–	–	32800 ± 8410	24.8	0.068 ± 0.012	0.35 ± 0.14	0.34	H-RGADRAGGGGRGD [HM-1, Arg-Gly-Ala-Asp-Arg-Ala-Gly-Gly-Gly-Gly-Arg-Gly-Asp]	–
32500 ± 7310	58.1 ± 9.42	0.513	40.28 ± 0.24	–	–	–	–	–	C[C@H](NC(=O)CNC(=O)[C@H](CCCNC(=N)N)NC(=O)CCCOCCN1C(=O)C=CC1=O)C(=O)N[C@@H](CC(=O)O)C(=O)N[C@@H](CCCNC(=N)N)C(=O)N[C@@H](C)C(=O)NCC(=O)NCC(=O)NCC(=O)NCC(=O)N[C@@H](CCCNC(=N)N)C(=O)NCC(=O)N[C@@H](CC(=O)O)C(=O)O [X51] (X1-RGADRAGGGGRGD-OH)	–
30300 ± 7110	54.2 ± 9.93	0.553	37.55 ± 0.27	–	–	–	–	–	C[C@H](NC(=O)CNC(=O)[C@H](CCCNC(=N)N)NC(=O)CCCCOCCOCCN1C(=O)C=CC1=O)C(=O)N[C@@H](CC(=O)O)C(=O)N[C@@H](CCCNC(=N)N)C(=O)N[C@@H](C)C(=O)NCC(=O)NCC(=O)NCC(=O)NCC(=O)N[C@@H](CCCNC(=N)N)C(=O)NCC(=O)N[C@@H](CC(=O)O)C(=O)O [X59] (X3-RGADRAGGGGRGD-OH)	–
30500 ± 7170	54.6 ± 12.2	0.547	37.86 ± 0.28	–	–	–	–	–	C[C@H](NC(=O)CNC(=O)[C@H](CCCNC(=N)N)NC(=O)CCCCCCN1C(=O)C=CC1=O)C(=O)N[C@@H](CC(=O)O)C(=O)N[C@@H](CCCNC(=N)N)C(=O)N[C@@H](C)C(=O)NCC(=O)NCC(=O)NCC(=O)NCC(=O)N[C@@H](CCCNC(=N)N)C(=O)NCC(=O)N[C@@H](CC(=O)O)C(=O)O [X6] (X83-RGADRAGGGGRGD-OH)	–
–	–	–	–	28500 ± 7290	0.585	51 ± 11.1	35.31 ± 0.32	–	C[C@H](NC(=O)CNC(=O)[C@H](CCCNC(=N)N)NC(=O)COCCN1C(=O)C=CC1=O)C(=O)N[C@@H](CC(=O)O)C(=O)N[C@@H](CCCNC(=N)N)C(=O)N[C@@H](C)C(=O)NCC(=O)NCC(=O)NCC(=O)NCC(=O)N[C@@H](CCCNC(=N)N)C(=O)NCC(=O)N[C@@H](CC(=O)O)C(=O)O [X49] (X38-RGADRAGGGGRGD-OH)	–

Compound	AUC(0-inf) [ng·h/mL]	MRT inf [h]	clearance [mL/min/kg]	half-life (T1/2β (half-life)) [h]	AUC(0-inf) (read-out: AUC0-∞) [ng·h/mL]	clearance (read-out: CL (converted)) [mL/min/kg]	MRT inf (read-out: MRT0-∞) [h]	half-life [1] [h]	half-life (read-out: half-life (converted)) [h]	half-life [h]
C[C@H](NC(=O)[C@H](CCCNC(=N)N)NC(=O)[C@H](CC(=O)O)NC(=O)[C@H](CCC(=O)O)NC(=O)CNC(=O)[C@H](CCCNC(=N)N)NC(=O)CCN1C(=O)C=CC1=O)C(=O)NCC(=O)NCC(=O)NCC(=O)NCC(=O)N[C@@H](CCCNC(=N)N)C(=O)NCC(=O)N[C@@H](CC(=O)O)C(=O)O [P5] ({Propanoyl(3-maleimido)}-RGEDRAGGGGRGD-OH; C-terminus assumed)	29200 ± 7880	52.4 ± 12.2	0.57	–	–	–	–	–	–	36.28 ± 0.25
